US8501816B2, “Antitussive compositions comprising memantine” (Cerecor, Inc., priority 2010, dated 2013)
“Also recorded” adds a separate entry of the source.

How the values were obtained:
[1] = treated for dementia, recent review; cited from earlier work
[2] = Pharmacokinetics of memantine after oral or buccal dosing in male beagle dogs (Example 2); type: in vivo, beagle dog; set-up: Cmax/Dose: unit not given beside the values; settings: for AUC(0-inf) / AUC(0-t) / Cmax / Tmax / half-life: male, beagle, dog, plasma, 0.4 mg/kg
[3] = around pH 6.0; cited from earlier work
[4] = test system: freezing behavior during cued fear conditioning; test: Cued fear conditioning in mice; type: in vivo
Experimental: The effects of memantine on enhancing cognition were investigated with fear conditioning tests on mice. Specifically, the fear conditioning test exposed mice to a conditioned stimulus (a tone) and an unconditioned stimulus (a mild electric shock). The mice learned to associate the tone with the shock as reflected by freezing. After being adequately conditioned, the mice were administered memantine or a control (vehicle alone). […] Fear Conditioning: Fear conditioning mouse chambers (7''W×7''D×12''H; Coulbourne Instruments, […] Valley, Pa.) were housed in sound attenuating chambers. A camera was mounted on the ceiling of the chamber to capture mouse behavior (FreezeFrame software, Coulbourne Instruments, […] Valley, Pa.); data were analyzed by Freezeview software (Coulbourne Instruments, […] Valley, Pa.). Fear conditioning chambers were calibrated prior to each experiment to ensure that each chamber delivers the same shock intensity. […] Pavlovian fear conditioning refers to the learning of associations between a negative reinforcer (e.g., a mild electric foot shock/s), a novel context (e.g. a context) and/or a specific, neutral, cue (e.g., tone or white noise). To assess contextual and cued (tone) learning and memory, a standardized fear conditioning task developed for the evaluation of memory in rodents was used. Protocol: […] Cue-induced Conditioning Testing: Mice were tested for cued memory 48 hours after training. The cued conditioning test was conducted in an altered context (i.e., a different test chamber). […] Statistical Analysis: Data are represented as the mean and standard error to the mean. Data were analyzed by analysis of variance (ANOVA) followed by Fisher PLSD, or unpaired t-tests, when appropriate to test a planned comparison. An effect was considered significant if p<0.05. Statistical outliers that fell above or below two standard deviations from the mean were removed from the final analysis.

[5] = Sedation and side effects observed in the cough studies
[6] = test system: Caco-2 cells; test: Memantine in vitro intestinal permeability (Caco-2 cells); type: in vitro ADME; settings: pH 5.0 to 10.5
[7] = MMT 0.4 mg/kg Buccal + 3.3 mg/ml NaOH
[8] = MMT 0.4 mg/kg Buccal + 7.5 mg/ml Na2CO3
[9] = MMT 0.4 mg/kg Buccal, Control (water)
[10] = po, MMT 0.4 mg/kg Oral + 15 mg/kg NH4Cl
[11] = po, MMT 0.4 mg/kg Oral + 25 mg/kg NH4Cl
[12] = po, MMT 0.4 mg/kg Oral + 30 mg/kg NH4Cl
[13] = po, MMT 0.4 mg/kg Oral, ControlAve

CC12CC3CC(C)(C1)CC(N)(C3)C2 [Memantine, 3,5-dimethyltricyclo[3.3.1.1^3,7]decan-1-amine]
adverse effects reported, share of those treated [1]: < 10%
Cmax/Dose ([2]; MMT 0.4 mg/kg Oral + 15 mg/kg NH4Cl): 6.8
Cmax/Dose ([2]; MMT 0.4 mg/kg Oral + 25 mg/kg NH4Cl): 5.2
Cmax/Dose ([2]; MMT 0.4 mg/kg Oral + 30 mg/kg NH4Cl): 5.4
Cmax/Dose ([2]; MMT 0.4 mg/kg Oral, ControlAve): 5.2
AUC(0-inf) [2, 7]: 112 ng·h/mL
AUC(0-t) [2, 7]: 108 ng·h/mL
Cmax [2, 7]: 52 ng/mL
Tmax [2, 7]: 0.25 h
half-life [2, 7]: 5.2 h
AUC(0-t) [2, 8]: 179 ng·h/mL
Tmax [2, 8]: 0.45 h
half-life [2, 8]: 4.5 h
Cmax [2, 9]: 23 ng/mL
Tmax [2, 9]: 0.75 h
half-life [2, 9]: 5.2 h
AUC(0-inf) [2, 10]: 256 ng·h/mL
AUC(0-t) [2, 10]: 233 ng·h/mL
Cmax [2, 10]: 25 ng/mL
Tmax [2, 10]: 2 h
half-life [2, 10]: 6.7 h
AUC(0-inf) [2, 11]: 179 ng·h/mL
AUC(0-t) [2, 11]: 169 ng·h/mL
Cmax [2, 11]: 20 ng/mL
Tmax [2, 11]: 1.5 h
half-life [2, 11]: 5.5 h
AUC(0-inf) [2, 12]: 168 ng·h/mL
AUC(0-t) [2, 12]: 163 ng·h/mL
Cmax [2, 12]: 25 ng/mL
Tmax [2, 12]: 1.1 h
half-life [2, 12]: 4.8 h
AUC(0-inf) [2, 13]: 210 ng·h/mL
AUC(0-t) [2, 13]: 190 ng·h/mL
Cmax [2, 13]: 22 ng/mL
Tmax [2, 13]: 1.7 h
half-life [2, 13]: 6.5 h
ionization [3]: completely ionized
cue-induced fear conditioning, CS phase, vs vehicle-diphenhydramine 20 mg/kg ([4]; memantine 10 mg/kg IP + diphenhydramine 20 mg/kg): significantly increased cue-induced fear conditioning
post-CS freezing vs vehicle-diphenhydramine ([4]; memantine 20 mg/kg plus diphenhydramine): strong trend (p=0.052) toward a significant increase in post-CS freezing
Side effects / sedation ([5]; memantine 10 mg/kg intraperitoneally): No side effects; also recorded: induced no sedation; also recorded: no sedating effects
Side effects ([5]; memantine 30 mg/kg): slight behavioral changes
permeability in Caco-2 cells versus pH [6]: gradually increases with an increase in pH
